Results as given in PubChem BioAssay (NCI).
“And” between values parts separate entries of the source, which are not always exact repeats. Identical values can stand only once.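 Cultured in 96-well plates, cells were exposed to test compound for 48 hours across five concentrations. TGI is the concentration that stops growth completely.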

Tests used:
Assay in all cases: NCI tumour cell line growth inhibition, 48 h
DMS 114 small cell lung = tested on: DMS 114 small cell lung
DMS 273 small cell lung = tested on: DMS 273 small cell lung
HOP-18 NSCLC = tested on: HOP-18 NSCLC
KM20L2 colon = tested on: KM20L2 colon
M19-MEL melanoma = tested on: M19-MEL melanoma
XF 498 CNS = tested on: XF 498 CNS
DLD-1 colon = tested on: DLD-1 colon
RXF-631 renal = tested on: RXF-631 renal
P388 leukemia = tested on: P388 leukemia
P388/ADR leukemia = tested on: P388/ADR leukemia
SN12K1 renal = tested on: SN12K1 renal

Row | SMILES | TGI (DMS 114 small cell lung) | TGI (DMS 273 small cell lung) | TGI (HOP-18 NSCLC) | TGI (KM20L2 colon) | TGI (M19-MEL melanoma) | TGI (XF 498 CNS) | TGI (DLD-1 colon) | TGI (RXF-631 renal) | TGI (P388 leukemia) | TGI (P388/ADR leukemia) | TGI (SN12K1 renal)
1 | CC(=O)O[C@]12CCCCCC1C1(O)C(O)CCC[C@H]12 (some centres undefined) | > 100 µM | > 100 µM | > 100 µM | > 100 µM | > 100 µM | > 100 µM | – | – | – | – | –
2 | CC[C@H]1CN2CCc3cc(OC)c(OC)cc3[C@@H]2C[C@@H]1C[C@H]1NCCc2cc(OC)c(OC)cc21 | 0.136 µM and 0.0466 µM | 0.18 µM and 0.0463 µM | 0.403 µM | 0.488 µM and 0.312 µM | 0.0824 µM and 0.147 µM | – | 0.591 µM and 0.408 µM | – | – | – | –
3 | O=c1ccc2cc3ccc4cccc5ccc(c2o1)c3c45 | > 100 µM | – | > 100 µM | > 100 µM | > 100 µM | 56.8 µM | > 100 µM | > 100 µM | – | – | –
4 | BrC/C=C/C[P+](c1ccccc1)(c1ccccc1)c1ccccc1 | 84 µM | 14.2 µM | > 100 µM | > 100 µM | 33.2 µM | 43.6 µM | – | > 100 µM | – | – | –
5 | O=C1C=CC(=O)N1Nc1ccc([N+](=O)[O-])cc1[N+](=O)[O-] | > 100 µM | > 100 µM | – | > 100 µM | > 100 µM | – | > 100 µM | – | – | – | –
6 | O=C(NC(Cc1ccc(I)cc1)C(=O)O)c1ccc(I)cc1 (centres undefined) | > 100 µM | > 100 µM | > 100 µM | > 100 µM | > 100 µM | > 100 µM | > 100 µM | – | > 100 µM | > 100 µM | > 100 µM
7 | CC(C(=O)n1nnc2ccccc21)N(c1ccccc1)c1ccccc1 (centres undefined) | – | > 100 µM | – | > 100 µM | > 100 µM | – | > 100 µM | – | – | – | –
8 | Cc1cn(C2OC(C)(CO)C(O)C2O)c(=O)[nH]c1=O (centres undefined) | > 100 µM | > 100 µM | > 100 µM | – | > 100 µM | – | > 100 µM | – | – | – | –
9 | C=CCNC(=S)/N=C/c1c(O)c2ccccc2oc1=O | > 100 µM | > 100 µM | > 100 µM | > 100 µM | > 100 µM | > 100 µM | > 100 µM | – | – | – | –
10 | Cc1cc(=O)c2c([nH]1)NS(=O)(=O)NC2=O | – | > 100 µM | – | – | > 100 µM | > 100 µM | > 100 µM | > 100 µM | – | – | –
11 | CCOC(=O)/C=C(\C)c1ccc(C)cc1C | > 100 µM | > 100 µM | > 100 µM | > 100 µM | – | 43.2 µM | 31.5 µM | > 100 µM | – | – | –
